Test results reported in patent US20120202756A1, “USE OF PRODRUGS TO AVOID GI MEDIATED ADVERSE EVENTS” (priority 2009, published 2012).
Structures can show the parent of a compound that is named as a salt. Where two headings read alike, the source gives them in different places.

Columns and labels:
Helicobacter pylori = experiment: MIC, clindamycin prodrugs; assay type: cell-based
[1] = tested on: Staphylococcus haemolyticus; experiment: MIC, clindamycin prodrugs; assay type: cell-based; conditions: antibiotic susceptible clinical isolate
Campylobacter coli = experiment: MIC, clindamycin prodrugs; assay type: cell-based
Propionibacterium acnes = experiment: MIC, clindamycin prodrugs; assay type: cell-based
Bacteroides fragilis = experiment: MIC, clindamycin prodrugs; assay type: cell-based
[2] = tested on: Bacteroides thetaiotamicron; experiment: MIC, clindamycin prodrugs; assay type: cell-based
Prevotella bivia = conditions: ATCC 29303
Streptococcus mitis = conditions: antibiotic-susceptible clinical isolate
Clostridium sporogenes = experiment: MIC, clindamycin prodrugs; assay type: cell-based; conditions: ATCC 3584
Group G Streptococcus = conditions: antibiotic-susceptible clinical isolate
[3] = tested on: Staphylococcus epidermidis; experiment: MIC, clindamycin prodrugs; assay type: cell-based
[4] = tested on: Bifidobacterium adolescentis; experiment: MIC, clindamycin prodrugs; assay type: cell-based; conditions: NCTC 11814
Prevotella denticola = conditions: clinical isolate
[5] = tested on: Prevotella melaninogenicus; experiment: MIC, clindamycin prodrugs; assay type: cell-based
[6] = tested on: Staphylococcus saprophyticus; conditions: antibiotic susceptible clinical isolate
[7] = Stability in simulated intestinal juice (FaSSIF); assay type: in vitro ADME; conditions: FaSSIF pH 6.5, pancreatin 1%, prodrug 20 μg/mL
Procedure, shortened: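 Prodrug (20 μg/mL) was incubated for 2 h at 37° C in FaSSIF (taurocholate 3 mM, lecithin 0.75 mM, 1% pancreatin, pH 6.5). After acid quench, remaining prodrug and released parent drug were measured by LC-MS/MS.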

Streptococcus pyogenes = experiment: MIC, clindamycin prodrugs; assay type: cell-based
Group C Streptococcus = experiment: MIC, clindamycin prodrugs; assay type: cell-based; conditions: antibiotic-susceptible clinical isolate
[8] = tested on: Peptostreptococcus anaerobius; experiment: MIC, clindamycin prodrugs; assay type: cell-based; conditions: NCTC 11460
Streptococcus pneumoniae = experiment: MIC, clindamycin prodrugs; assay type: cell-based
Clostridium perfringens = experiment: microbe, parasite or virus in culture; assay type: cell-based
[9] = tested on: Porphyromonas assacharolyticus; conditions: clinical isolate
Staphylococcusaureus = experiment: MIC, clindamycin prodrugs; assay type: cell-based
Veillonella atypical = experiment: MIC, clindamycin prodrugs; assay type: cell-based; conditions: NCTC 11830
Bifidobacterium dentium = experiment: MIC, clindamycin prodrugs; assay type: cell-based; conditions: NCTC 11816
Campylobacter jejuni = experiment: MIC, clindamycin prodrugs; assay type: cell-based
Listeria monocytogenes = conditions: antibiotic-susceptible clinical isolate
Bifidobacterium longum = experiment: MIC, clindamycin prodrugs; assay type: cell-based; conditions: NCTC 11818
Veillonella parvula = experiment: MIC, clindamycin prodrugs; assay type: cell-based; conditions: NCTC 11810
[10] = antibiotic-susceptible clinical isolate

CCCC1CC(C(=O)NC(C(C)Cl)C2OC(SC)C(OC(=O)CCC(=O)N[C@H](C(=O)O)C(C)C)C(O)C2O)N(C)C1 (stereo partly drawn) [Clindamycin succinyl valine ester, Clindamycin-2-[succinyl-(S)-valine]ester trifluoroacetate]
Minimum inhibitory concentration (Helicobacter pylori; ATCC 43504): ≦0.03 ug/mL | Minimum inhibitory concentration (Helicobacter pylori; clinical isolate (r56)): ≦0.03 ug/mL | Minimum inhibitory concentration (Helicobacter pylori; clinical isolate (r57)): ≦0.03 ug/mL | Minimum inhibitory concentration (Helicobacter pylori; clinical isolate (r100)): ≦0.03 ug/mL | Minimum inhibitory concentration (Helicobacter pylori; clinical isolate (r101)): ≦0.03 ug/mL | Minimum inhibitory concentration [1]: 2 µg/mL | Minimum inhibitory concentration (Campylobacter coli; ATCC 33559): ≦0.03 ug/mL | Minimum inhibitory concentration (Campylobacter coli; clinical isolate): ≦0.03 ug/mL | Minimum inhibitory concentration (Propionibacterium acnes): 2 µg/mL | Minimum inhibitory concentration (Propionibacterium acnes; clinical isolate MIC clindamycin 0.5 mg/L): 2 µg/mL | Minimum inhibitory concentration (Bacteroides fragilis; ATCC 25285): 8 µg/mL | Minimum inhibitory concentration (Bacteroides fragilis; clinical isolate): 8 µg/mL | Minimum inhibitory concentration ([2]; ATCC 29741): 16 µg/mL | Minimum inhibitory concentration ([2]; NCTC 10582): 32 µg/mL | Minimum inhibitory concentration (Prevotella bivia): 0.5 µg/mL | Minimum inhibitory concentration (Streptococcus mitis): 0.25 µg/mL | Minimum inhibitory concentration (Clostridium sporogenes): >64 µg/mL | Minimum inhibitory concentration (Group G Streptococcus): 1 µg/mL | Minimum inhibitory concentration ([3]; antibiotic susceptible clinical isolate): 2 µg/mL | Minimum inhibitory concentration ([3]; methicillin-resistant clinical isolate): 4 µg/mL | Minimum inhibitory concentration [4]: 0.5 µg/mL | Minimum inhibitory concentration (Prevotella denticola): 1 µg/mL | Minimum inhibitory concentration ([5]; clinical isolate (first listed, r37)): 0.25 µg/mL | Minimum inhibitory concentration ([5]; clinical isolate (second listed, r38)): 0.25 µg/mL | Minimum inhibitory concentration [6]: 1 µg/mL | Simulated intestinal juice (2 h, 37° C.) (FaSSIF) % active drug generated [7]: <1% | Minimum inhibitory concentration (Streptococcus pyogenes; Macrolide (MLS) resistant clinical isolate): 2 µg/mL | Minimum inhibitory concentration (Streptococcus pyogenes; [10]): 1 µg/mL | Minimum inhibitory concentration (Group C Streptococcus): 1 µg/mL | Minimum inhibitory concentration [8]: 8 µg/mL | Minimum inhibitory concentration (Streptococcus pneumoniae; ATCC 49619 antibiotic-susceptible type strain): 0.5 µg/mL | Minimum inhibitory concentration (Streptococcus pneumoniae; penicillin-susceptible clinical isolate): 0.5 µg/mL | Minimum inhibitory concentration (Clostridium perfringens; ATCC 13124): 1 µg/mL | Minimum inhibitory concentration (Clostridium perfringens; [10]): 1 µg/mL | Minimum inhibitory concentration [9]: 0.12 µg/mL | Minimum inhibitory concentration (Staphylococcusaureus; ATCC 25923 - antibiotic-susceptible type strain): 1 µg/mL | Minimum inhibitory concentration (Staphylococcusaureus; ATCC 29213 - antibiotic-susceptible type strain): 2 µg/mL | Minimum inhibitory concentration (Staphylococcusaureus; ATCC 43300 - methicillin-resistant type strain): >64 µg/mL | Minimum inhibitory concentration (Veillonella atypical): 2 µg/mL | Minimum inhibitory concentration (Bifidobacterium dentium): 0.5 µg/mL | Minimum inhibitory concentration (Campylobacter jejuni; ATCC 33560): ≦0.03 ug/mL | Minimum inhibitory concentration (Campylobacter jejuni; clinical isolate): ≦0.03 ug/mL | Minimum inhibitory concentration (Listeria monocytogenes): 16 µg/mL | Minimum inhibitory concentration (Bifidobacterium longum): 0.5 µg/mL | Minimum inhibitory concentration (Veillonella parvula): 1 µg/mL
